By LD50 is commonly meant the dose at which mortality reaches 50%.

SMILES strings stand for the structures.

The values below come from ChEMBL document CHEMBL3044954, “Insecticide Resistance and Insensitive Acetylcholinesterase in Small Brown Planthopper, Laodelphax striatellus” (J Pestic Sci, 2000).

Experiment [1] deals with T1, Carboxylesterase (Laodelphax striatella) (UniProt K4JRP7).
T1 sequence (whole entry): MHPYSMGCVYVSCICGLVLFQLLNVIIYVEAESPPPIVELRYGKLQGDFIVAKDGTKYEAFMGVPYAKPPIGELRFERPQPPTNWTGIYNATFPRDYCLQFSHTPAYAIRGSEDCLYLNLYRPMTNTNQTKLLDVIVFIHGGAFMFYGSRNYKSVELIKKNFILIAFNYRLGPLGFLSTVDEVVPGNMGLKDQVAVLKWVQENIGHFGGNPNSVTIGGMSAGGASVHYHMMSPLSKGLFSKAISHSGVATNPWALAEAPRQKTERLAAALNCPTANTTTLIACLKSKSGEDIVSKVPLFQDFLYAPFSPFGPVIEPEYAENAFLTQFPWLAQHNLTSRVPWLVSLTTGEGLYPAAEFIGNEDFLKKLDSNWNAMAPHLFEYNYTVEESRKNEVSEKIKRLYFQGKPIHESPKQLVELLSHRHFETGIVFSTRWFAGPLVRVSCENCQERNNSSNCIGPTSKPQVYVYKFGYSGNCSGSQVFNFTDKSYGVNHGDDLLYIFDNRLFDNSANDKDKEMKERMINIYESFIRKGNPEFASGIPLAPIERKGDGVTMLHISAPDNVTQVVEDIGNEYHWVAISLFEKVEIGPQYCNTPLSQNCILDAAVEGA
As to the kind of experiment: Activity of aliesterase in Laodelphax striatella Ibaraki (small brown planthopper) homogenate assessed per 10 min per ug protein after 10 min by van Asperen method. As to conditions: Laodelphax striatellus.

The target in experiment [2] is T1, Carboxylesterase (Laodelphax striatella). As to the kind of experiment: Ratio of activity of aliesterase in Laodelphax striatella Kumamoto (small brown planthopper) homogenate to activity of aliesterase in susceptible Laodelphax striatella homogenate. As to conditions: Laodelphax striatellus.
The target is the same in experiment [3]. Briefly: Activity of aliesterase in Laodelphax striatella Kumamoto (small brown planthopper) homogenate assessed per 10 min per ug protein after 10 min by van Asperen method. Particulars: Laodelphax striatellus.
Experiment [4] has the same target. Briefly: Activity of aliesterase in susceptible Laodelphax striatella (small brown planthopper) homogenate assessed per 10 min per ug protein after 10 min by van Asperen method. Particulars: Laodelphax striatellus.
Experiment [5] shares this target. As to the kind of experiment: Ratio of activity of aliesterase in Laodelphax striatella Ibaraki (small brown planthopper) homogenate to activity of aliesterase in susceptible Laodelphax striatella homogenate. As to conditions: Laodelphax striatellus.
Experiment [6] addresses T2, Acetylcholinesterase (Laodelphax striatella, UniProt K4JQ36). Briefly: Inhibition of acetylcholinesterase in Laodelphax striatella Kumamoto (small brown planthopper) homogenate preincubated for 10 min before substrate addition measured after 10 min by Ellman method. Also noted: species or system Laodelphax striatellus. As to conditions: read-out: I50. For orientation: DTNB colorimetry detects thiols as they appear.

In experiment [7] the target is T2, Acetylcholinesterase. As to the kind of experiment: Inhibition of acetylcholinesterase in Laodelphax striatella Ibaraki (small brown planthopper) homogenate preincubated for 10 min before substrate addition measured after 10 min by Ellman method. Also noted: species or system Laodelphax striatellus. As to conditions: read-out: I50.
The target in experiment [8] is T2, Acetylcholinesterase. As to the kind of experiment: Inhibition of acetylcholinesterase in susceptible Laodelphax striatella (small brown planthopper) homogenate preincubated for 10 min before substrate addition measured after 10 min by Ellman method. As to conditions: read-out: I50. Set-up: species or system Laodelphax striatellus.
For experiment [9], the system named is Laodelphax striatellus. As to the kind of experiment: Insecticidal activity against susceptible Laodelphax striatella (small brown planthopper) assessed as mortality compound treated topically on dorsal side. Particulars: topical. Format: functional.
For experiment [10], the system named is Laodelphax striatellus. As to the kind of experiment: Insecticidal activity against Laodelphax striatella Ibaraki (small brown planthopper) assessed as mortality compound treated topically on dorsal side. Particulars: topical.
The test system of experiment [11] is Laodelphax striatellus. Briefly: Ratio of LD50 for Laodelphax striatella Ibaraki (small brown planthopper) to LD50 for susceptible Laodelphax striatella. Format: functional.
Experiment [12] relates to Laodelphax striatellus. Briefly: Ratio of LD50 for Laodelphax striatella Kumamoto (small brown planthopper) to LD50 for susceptible Laodelphax striatella. Format: functional.
The subject of experiment [13] is Laodelphax striatellus. As to the kind of experiment: Insecticidal activity against Laodelphax striatella Kumamoto (small brown planthopper) assessed as mortality compound treated topically on dorsal side. As to conditions: topical.
Experiment [14] addresses Acetylcholinesterase (Laodelphax striatella) (UniProt K4JQ36). As to the kind of experiment: Ratio of I50 of acetylcholinesterase in Laodelphax striatella Kumamoto (small brown planthopper) homogenate to I50 for acetylcholinesterase in susceptible Laodelphax striatella homogenate. As to conditions: Laodelphax striatellus.
The target is the same in experiment [15]. As to the kind of experiment: Ratio of I50 of acetylcholinesterase in Laodelphax striatella Ibaraki (small brown planthopper) homogenate to I50 for acetylcholinesterase in susceptible Laodelphax striatella homogenate. Particulars: Laodelphax striatellus.

Acetylcholinesterase (Laodelphax striatella), sequence (K4JQ36 1-426): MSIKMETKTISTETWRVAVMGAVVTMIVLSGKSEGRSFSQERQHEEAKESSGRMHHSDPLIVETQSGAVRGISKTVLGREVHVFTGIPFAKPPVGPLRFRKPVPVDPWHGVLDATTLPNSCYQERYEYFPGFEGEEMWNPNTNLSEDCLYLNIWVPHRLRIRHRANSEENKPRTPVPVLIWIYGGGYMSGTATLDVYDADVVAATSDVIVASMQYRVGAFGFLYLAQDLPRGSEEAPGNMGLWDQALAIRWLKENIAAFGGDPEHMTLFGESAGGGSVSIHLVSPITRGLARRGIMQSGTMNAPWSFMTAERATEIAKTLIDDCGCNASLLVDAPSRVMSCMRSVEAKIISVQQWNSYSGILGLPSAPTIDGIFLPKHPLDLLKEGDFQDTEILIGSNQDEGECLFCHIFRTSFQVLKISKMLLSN
T2 sequence (K4JQ36 whole entry): as the sequence (K4JQ36 1-426) above

With `CC(=O)Oc1cccc2ccccc12`, the Activity stood at 27 nmol in [1], 29 nmol in [3] and 6.6 nmol in experiment [4]. In addition, the Ratio stood at 4.3 in [2] and 4.1 in experiment [5].

With `CNC(=O)Oc1cccc2ccccc12` [CARBARIL], the IC50 at Acetylcholinesterase [6] amounted to 310 nM; on Acetylcholinesterase [7] it was 48 nM; on Acetylcholinesterase [8], 48 nM.

For the molecule `CNC(=O)Oc1cccc2c1OC(C)(C)C2` [CARBOFURAN], the LD50 in the experiment with Laodelphax striatellus [9] came out at 0.51 mg/kg; with Laodelphax striatellus [10], 1.7 mg/kg; in the experiment on Laodelphax striatellus [13] it was 20 mg/kg. In addition, the Ratio in the experiment on Laodelphax striatellus [11] is given as 3.3; in the experiment on Laodelphax striatellus [12] it was 39.

Regarding `CCCCN(CCCC)SN(C)C(=O)Oc1cccc2c1OC(C)(C)C2` [CARBOSULFAN], the LD50 was 2.2 mg/kg in the experiment with Laodelphax striatellus [9] and 42 mg/kg in the experiment with Laodelphax striatellus [13]. In addition, the Ratio in the experiment on Laodelphax striatellus [12] is 19.

`CCOP(=O)(OCC)Oc1cc(C)nc(C(C)C)n1` [DIAZOXON]: the IC50 on Acetylcholinesterase [6] worked out at 400 nM; at Acetylcholinesterase [7] it was 190 nM; on Acetylcholinesterase [8] it was 170 nM. Besides, the Ratio in experiment [14] came to 2.4; in experiment [15], 1.1.

Consider `CCOP(=S)(OCC)Oc1cc(C)nc(C(C)C)n1` [DIMPYLATE], for which the median lethal dose (LD50) in the experiment with Laodelphax striatellus [9] turned out to be 8.5 mg/kg; in the experiment on Laodelphax striatellus [10], 28 mg/kg; in the experiment with Laodelphax striatellus [13] it was 74 mg/kg. Moreover, the Ratio in the experiment on Laodelphax striatellus [11] is 3.3; in the experiment on Laodelphax striatellus [12], 8.7.

In the case of `CCOc1ccc(C(C)(C)COCc2cccc(Oc3ccccc3)c2)cc1` [ETOFENPROX], the 50% lethal dose (LD50) in the experiment on Laodelphax striatellus [9] was 1.6 mg/kg; with Laodelphax striatellus [10], 1.7 mg/kg; with Laodelphax striatellus [13], 2.7 mg/kg. In addition, the Ratio in the experiment on Laodelphax striatellus [11] is reported as 1.1; in the experiment on Laodelphax striatellus [12], 1.7.

`COP(=S)(OC)Oc1ccc([N+](=O)[O-])c(C)c1` [FENITROTHION]: the LD50 in the experiment on Laodelphax striatellus [9] worked out at 6.4 mg/kg; in the experiment with Laodelphax striatellus [10], 27 mg/kg; in the experiment on Laodelphax striatellus [13] it was 38 mg/kg. In addition, the Ratio in the experiment with Laodelphax striatellus [11] is on record as 4.2; in the experiment on Laodelphax striatellus [12], 5.9.

Take `COP(=O)(OC)Oc1ccc([N+](=O)[O-])c(C)c1` [FENITROXON]: the values for the IC50 at Acetylcholinesterase [6], on Acetylcholinesterase [7] and on Acetylcholinesterase [8] were 730 nM, 360 nM and 350 nM, respectively. In addition, the Ratio in experiment [14] was found to be 2.1; in [15] it was 1.

In the case of `CCC(C)c1ccccc1OC(=O)NC` (centres undefined) [FENOBUCARB], the IC50 at Acetylcholinesterase [6] amounted to 140 nM; at Acetylcholinesterase [7] it was 26 nM; at Acetylcholinesterase [8] it was 29 nM. Moreover, the Ratio in [14] was 4.8; with Laodelphax striatellus [11], 1.8; in the experiment with Laodelphax striatellus [12], 18; in [15], 0.9. Moreover, the figures for the LD50 in the experiment on Laodelphax striatellus [9], in the experiment with Laodelphax striatellus [10] and in the experiment with Laodelphax striatellus [13] were 18 mg/kg, 33 mg/kg and 320 mg/kg, respectively.

For the molecule `CC(C)C(C(=O)OC(C#N)c1cccc(Oc2ccccc2)c1)c1ccc(Cl)cc1` (centres undefined) [FENVALERATE], the LD50 is 1.4 mg/kg in the experiment on Laodelphax striatellus [9] and 1.9 mg/kg with Laodelphax striatellus [10]. Moreover, the Ratio in the experiment with Laodelphax striatellus [11] was found to be 1.4.

In the case of `O=[N+]([O-])/N=C1\NCCN1Cc1ccc(Cl)nc1` [IMIDACLOPRID], the results for the LD50 with Laodelphax striatellus [9], in the experiment with Laodelphax striatellus [10] and in the experiment with Laodelphax striatellus [13] were 0.26 mg/kg, 0.26 mg/kg and 0.61 mg/kg, respectively. Also, the results for the Ratio in the experiment with Laodelphax striatellus [11] and in the experiment with Laodelphax striatellus [12] were 1 and 2.3, respectively.

As to `CCOC(=O)CC(SP(=S)(OC)OC)C(=O)OCC` (centres undefined) [MALATHION], the LD50 came out at 22 mg/kg with Laodelphax striatellus [9], 130 mg/kg with Laodelphax striatellus [10] and 380 mg/kg with Laodelphax striatellus [13]. Also, the Ratio with Laodelphax striatellus [11] is 5.9; in the experiment with Laodelphax striatellus [12] it was 17.
